Common to all, as to experiment: Bliss excess, mean over the matrix (fraction); higher = more synergy
The subject of test [1] is COR-L23 (Non-Small Cell Lung Carcinoma). The method, boiled down: (§1)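 Cell lines grown in DMEM/F12 or RPMI with 10% FBS were plated in 1536-well plates and held 24 hours at 37°C, 5% CO2 before 72 hours of exposure to two-drug dose matrices, with DMSO typically at 0.2%. CellTiter-Glo 2.0 luminescence gave viability, which was converted to inhibition. Vehicle wells were set to 0 and blank wells to 1. Combination Emax is the second-highest inhibition in the matrix, and Bliss excess is the observed combination effect minus the expected EA + EB − EA·EB, where EA and EB are the single-agent effects.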

The subject of test [2] is LU-99A (Non-Small Cell Lung Carcinoma). The method in brief:
as §1

The test system of test [3] is MDA-MB-231 (Breast Carcinoma). The method, boiled down:
as §1

Test [4] deals with EM-2 (Chronic Myelogenous Leukemia). The method in brief: as §1
Test [5] concerns NALM-6 (B-Lymphoblastic Leukemia). The method in brief: as §1
The subject of test [6] is SW780 (Bladder Carcinoma). The method, boiled down: as §1
In test [7] the test system is LS-513 (Colorectal Carcinoma). The method, boiled down:
as §1

Test [8] deals with HCC2157 (Breast Carcinoma). The method in brief:
as §1

Test [9] deals with DOV13 (Ovarian Carcinoma). The method, boiled down:
as §1

The test system of test [10] is SW1088 (Low Grade Glioma). The method, boiled down:
as §1

In test [11] the test system is COR-L95 (Small Cell Lung Carcinoma). The method, boiled down:
as §1

The subject of test [12] is NCI-H1793 (Lung Adenocarcinoma). The method, boiled down: as §1
Test [13] has as its system NCI-H1781 (Lung Adenocarcinoma). The method in brief: as §1
The test system of test [14] is DB (B-Cell Non-Hodgkin's Lymphoma). The method in brief: as §1
The test system of test [15] is HPAC (Pancreatic Carcinoma). The method, boiled down: as §1
Test [16] relates to SW1783 (Low Grade Glioma). The method in brief:
as §1

Test [17] relates to HT-29 (Colorectal Carcinoma). The method, boiled down:
as §1

The subject of test [18] is NCI-H1694 (Small Cell Lung Carcinoma). The method, boiled down:
as §1

The test system of test [19] is SW1990 (Pancreatic Carcinoma). The method, boiled down:
as §1

The next test relates to IGR-1 (Melanoma). The method, boiled down:
as §1

Consider four molecules from the supplement of paper PMC11061612.

For `CN(CCO)CC[C@H](CSc1ccccc1)Nc1ccc(S(=O)(=O)NC(=O)c2ccc(N3CCC([C@@H](O)c4ccccc4-c4ccc(Cl)cc4)CC3)cc2)cc1S(=O)(=O)C(F)(F)F` [AZD4320] + C[C@@H]1COCCN1C2=NC(=NC(=C2)C3(CC3)[S@](=N)(=O)C)C4=C5C=CNC5=NC=C4 [AZD6738] (first compound max 1 µM, 7x7, partner max 10 µM), the Bliss excess in [1] is -0.0468; in [2], -0.0464; in test [3] it was -0.0571; in [4], 0.005; in test [5], 0.0379; in [6] it was -0.0478. Also, the Bliss excess was -0.0354 in test [7]; 0.0014 in test [8]; -0.0448 in [9]; -0.0732 in test [10]; -0.0234 in test [11]; -0.0272 in test [12]. Besides, the Bliss excess in [13] was -0.0005; in test [14], 0.0249; in test [15], -0.007; in test [16] it was -0.106; in test [17], -0.0073; in test [18] it was 0.0238. Further, the figures for the Bliss excess (in test [19]; in the test on IGR-1 (Melanoma)) were 0.0112 and 0.0464, respectively.
On to `CN(CCO)CC[C@H](CSc1ccccc1)Nc1ccc(S(=O)(=O)NC(=O)c2ccc(N3CCC([C@@H](O)c4ccccc4-c4ccc(Cl)cc4)CC3)cc2)cc1S(=O)(=O)C(F)(F)F` [AZD4320] + CN(C)CCCOc1ccc(-c2ccc3ncc4c(c3c2)n(C2CCOCC2)c(=O)n4C)cn1 [AZD0156] (first compound max 1 µM, 7x7, partner max 1 µM), for which the Bliss excess was -0.0231 in test [1]; -0.006 in test [2]; 0.0319 in test [3]; -0.0192 in test [4]; 0.0217 in [5]; -0.0392 in [6]. Moreover, the Bliss excess in [7] was -0.0391; in test [8], 0.009; in test [9] it was -0.0021; in [10] it was -0.033; in [11], 0.0046; in [12], -0.027. Also, the Bliss excess in test [13] was -0.0694; in test [14], 0.0373; in test [15], -0.0709; in [16], -0.0298; in [17], -0.0238; in [18], 0.0791. Also, the Bliss excess in [19] was -0.0411; in the test with IGR-1 (Melanoma), -0.0149.
On to `COc1cccc(OCCCN)c1-c1cc(Nc2cnc(C#N)cn2)n[nH]1` [Prexasertib] + Cc1cc2ncnn2cc1Nc1ncc2c(n1)n(C1CCOCC1)c(=O)n2C [AZD7648] (first compound max 1 µM, 7x7, partner max 10 µM), for which the Bliss excess was 0.0184 in test [1]; -0.0343 in [2]; 0.0128 in [3]; -0.0274 in test [4]; -0.044 in [5]; 0.001 in test [6]. In addition, the Bliss excess was -0.0509 in [7]; -0.0315 in test [8]; 0.0069 in test [9]; -0.0975 in test [10]; -0.102 in test [11]; 0.0257 in test [12]. Moreover, the Bliss excess in test [13] was 0.0024; in test [14], -0.0319; in test [15], -0.0074; in [16] it was -0.0281; in test [17], -0.0377; in [18], -0.0259. Moreover, the Bliss excess is -0.0317 in test [19] and 0.0116 in the test with IGR-1 (Melanoma).
Take `COc1nnc2ccc(N3CCC(c4ccc(OCCN5CCN(C)C(=O)[C@H]5C)cc4)CC3)nn12` [AZD5153] + CCN(CCO)CCCOc1ccc2c(Nc3cc(CC(=O)Nc4cccc(F)c4)[nH]n3)ncnc2c1 [AZD2811] (first compound max 1 µM, 7x7, partner max 1 µM): the Bliss excess in [1] was -0.0551; in test [2], -0.0244; in test [3], -0.0353; in test [4] it was -0.001; in [5], -0.0683; in test [6], -0.0766. For the same molecule, the Bliss excess in test [7] was -0.102; in test [8] it was 0.0389; in [9], -0.0908; in test [10], -0.0669; in test [11], -0.0159; in test [12], -0.0381. Moreover, the Bliss excess in test [13] was -0.129; in [14] it was -0.0585; in test [15] it was -0.0283; in test [16] it was -0.038; in test [17], -0.0281; in test [18] it was 0.0041. Moreover, the Bliss excess in [19] is -0.0477; in the test with IGR-1 (Melanoma) it was 0.0249.
